{"source": "paper PMC11591947", "about": "“Peroxidase-like Nanoparticles of Noble Metals Stimulate Increasing Sensitivity of Flavocytochrome b2-Based L-Lactate Biosensors” (Biosensors, 2024)", "target": "T1, Flavocytochrome b2 (Fcb2, EC 1.1.2.3) (Ogataea polymorpha, UniProt A0A9P8PNE1)", "T1 construct": "gene OGATHE_001663", "T1 sequence (A0A9P8PNE1 55-553)": "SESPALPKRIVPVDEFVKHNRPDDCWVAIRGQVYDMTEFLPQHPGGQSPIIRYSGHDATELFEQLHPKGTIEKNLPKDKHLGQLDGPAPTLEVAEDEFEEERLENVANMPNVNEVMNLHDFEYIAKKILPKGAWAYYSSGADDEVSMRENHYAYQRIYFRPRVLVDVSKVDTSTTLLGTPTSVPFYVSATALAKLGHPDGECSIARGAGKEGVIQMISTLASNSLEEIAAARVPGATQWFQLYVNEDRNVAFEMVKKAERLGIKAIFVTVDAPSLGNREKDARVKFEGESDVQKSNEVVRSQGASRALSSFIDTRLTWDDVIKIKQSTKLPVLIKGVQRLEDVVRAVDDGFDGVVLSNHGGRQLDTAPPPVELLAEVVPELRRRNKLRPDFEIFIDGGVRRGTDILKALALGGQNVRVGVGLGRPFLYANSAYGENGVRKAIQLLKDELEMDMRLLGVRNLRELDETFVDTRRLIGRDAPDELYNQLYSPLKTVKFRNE", "experiment": "chronoamperometry on Fcb2/graphite electrode biosensor", "format": "biochemical", "details": "immobilised enzyme (0.3 units, Nafion film, no nanoparticles); 1 mM PMS; +200 mV vs Ag/AgCl; apparent value of bioelectrode", "data": [{"smiles": "C[C@H](O)C(=O)O", "note": "[L-lactate]", "values": [{"measurement": "KM^app", "value": "Calibration curves illustrating the current dependence on the L-lactate concentration for the ABS"}]}]}
